# Source: patent publication US11872228B2, “Pharmaceutical composition containing thiamine derivative for prevention or treatment of sepsis” (KYUNGPOOK NATIONAL UNIVERSITY INDUSTRY-ACADEMIC COOPERATION …, priority 2021, dated 2024)
# Experiments:
# [1] = system: TNFα; test: Inhibition of TNFα expression in LPS-activated dendritic cells (ELISA of supernatants); assay type: cell-based, C57BL/6J male mice; settings: for TNFα (pg/mL): 100 ng/mL LPS 18 h; for TNFα expression level relative to LPS alone: LPS-activated dendritic cells
# Method: (§1) The dendritic cells at 1×10^6 cells/mL were treated with benfotiamine and fursultiamine at different concentrations of 0, 1, 10, and 100 and allithiamine at different concentrations of 0, 1, and 10 μM.
# Thereafter, the dendritic cells were activated with 100 ng/mL LPS for 18 hours.
# [2] = system: CD86; test: CD86 expression in CD11c+ dendritic cells by flow cytometry; assay type: cell-based, C57BL/6J male mice; settings: 50 μM, 100 ng/mL LPS
# [3] = system: CD86; test: as above; assay type: cell-based, C57BL/6J male mice
# Method: as §1
# (§2) The dendritic cells were measured for CD40 and CD86 in CD11c+ cells by flow cytometry, and the results are shown in FIGS. 6A and 6B and Tables 5 and 6.
# [4] = system: TNFα; test: Inhibition of TNFα expression in LPS-activated dendritic cells (ELISA of supernatants); assay type: cell-based, C57BL/6J male mice; settings: for TNFα: dendritic cells not stimulated by LPS
# [5] = system: CD40; test: CD40 expression in CD11c+ dendritic cells by flow cytometry; assay type: cell-based, C57BL/6J male mice
# Method: as §1, §2
# [6] = system: IL-1β; test: Inhibition of IL-1β expression in LPS-primed, ATP-treated dendritic cells; assay type: cell-based, C57BL/6J male mice; settings: for IL-1β: LPS priming + 5 mM ATP
# Method: Bone marrow was extracted from the legs of six- to eight-week old C57BL/6J male mice, and subjected to red blood cell (RBC) lysis, followed by differentiation into dendritic cells in RPMI 1640 medium (10% fetal bovine serum (FBS) and 1% penicillin-streptomycin) along with 20 ng/ml granulocyte-macrophage colony-stimulating factor (GM-CSF) for six days. The dendritic cells at 1×10^6 cells/mL were treated with benfotiamine and fursultiamine at different concentrations of 0, 1, 10, and 100 and allithiamine at different concentrations of 0, 1, and 10 μM.
# The dendritic cells were subjected to pro-IL1b priming by the treatment with 500 ng/mL LPS for 3 hours, and then treated with benfotiamine at 0, 10, 50, or 100 and fursultiamine at 0, 10, 50, or 100 μM, for 15 minutes. Then, pro-IL1b was converted into IL-1β through pro-IL1b cleavage, followed by 5 mM ATP treatment for inducing inflammasome formation.
# [7] = system: TNFα; test: Inhibition of TNFα expression in vivo (allithiamine along with LPS); set-up: species or system mice
# Method: The inhibition of TNFα expression in vivo was investigated by the administration of 5 mg/kg allithiamine along with 50 mg/kg LPS, and the results are shown in FIG. 7A and Table 7.
# [8] = system: LPS-induced sepsis mouse model; test: Survival rate of murine sepsis model, allithiamine treatment; assay type: in vivo, C57BL/6J male mice
# Method: The mice were intravenously (I.V.) administered 5 mg/kg allithiamine immediately before intraperitoneal injection of 50 mg/kg LPS, and then the survival rates were monitored (allithiamine 5 mg/kg co-treatment). In addition, the mice were intravenously administered 5 mg/kg allithiamine three hours after LPS injection, and then the survival rates were monitored (allithiamine 5 mg/kg 3 h-delayed co-treatment), and the results are shown in FIG. 3 and Table 2.
# [9] = 1 μM, dendritic cells, 100 ng/mL LPS
# [10] = 10 μM, dendritic cells, 100 ng/mL LPS
# [11] = 100 μM, dendritic cells not stimulated by LPS
# [12] = 100 μM, dendritic cells, 100 ng/mL LPS
# [13] = allithiamine 5 mg/kg along with LPS 50 mg/kg
# [14] = 10 μM, dendritic cells not stimulated by LPS
compound,measurement,setting,value
"C/C(=C(\CCOP(=O)(O)O)SC(=O)c1ccccc1)N(C=O)Cc1cnc(C)nc1N [Benfotiamine, benfotiamine]",TNFα (pg/mL),"[1]; 1 μM, dendritic cells","4,909.05 pg/mL"
same,TNFα (pg/mL),"[1]; 10 μM, dendritic cells","4,614.42 pg/mL"
same,TNFα (pg/mL),"[1]; 100 μM, dendritic cells","4,696.43 pg/mL"
same,Inhibition of the TNFα expression increased by LPS (in words),"[1]; dendritic cells, up to 100 μM",could not inhibit
same,CD86 (Mean fluorescence intensity; MFI),[2],"2,448 MFI"
same,CD86 (Mean fluorescence intensity; MFI),[3]; [9],"2,734 MFI"
same,CD86 (Mean fluorescence intensity; MFI),[3]; [10],"2,198 MFI"
same,CD86 (Mean fluorescence intensity; MFI),[3]; [11],382 MFI
same,CD86 (Mean fluorescence intensity; MFI),[3]; [12],430 MFI
same,Inhibition of the CD86 expression increased by LPS (in words),"[3]; dendritic cells, up to 100 μM",could not inhibit
same,TNFα (pg/mL),"[4]; 50 μM, dendritic cells, 100 ng/mL LPS 18 h","4,806.97 pg/mL"
same,TNFα,[4]; 100 μM,84.82 pg/mL
same,CD40 (Mean fluorescence intensity; MFI),[5]; [9],"2,134 MFI"
same,CD40 (Mean fluorescence intensity; MFI),[5]; [10],"1,975 MFI"
same,CD40 (Mean fluorescence intensity; MFI),[5]; [11],248 MFI
same,CD40 (Mean fluorescence intensity; MFI),[5]; [12],"1,803 MFI"
same,Inhibition of the CD40 expression increased by LPS (in words),"[5]; dendritic cells, up to 100 μM",could not inhibit
same,IL-1β,[6]; 10 μM,912.2951 pg/mL
same,IL-1β,[6]; 50 μM,914.9398 pg/mL
same,IL-1β,[6]; 100 μM,914.2512 pg/mL
same,Inhibition of the IL-1β expression increased by LPS (in words),[6]; up to 100 μM,could not inhibit
"C=CCSS/C(CCO)=C(/C)N(C=O)Cc1cnc(C)nc1N [Allithiamine, allithiamine]",TNFα expression level relative to LPS alone,[1]; 1 μM,about 88.68%
same,TNFα (pg/mL),"[1]; 1 μM, dendritic cells","4,654.84 pg/mL"
same,TNFα expression level relative to LPS alone,[1]; 10 μM,about 74.68%
same,TNFα (pg/mL),"[1]; 10 μM, dendritic cells","3,919.75 pg/mL"
same,Reduction of TNFα expression relative to LPS alone,[7]; [13],about 46.494%
same,TNFα (pg/mL),[7]; [13],"2,084.883 pg/mL"
same,TNFα,"[7]; allithiamine 5 mg/kg, without LPS",82.442 pg/mL
same,CD86 (Mean fluorescence intensity; MFI),[3]; [9],"2,184 MFI"
same,CD86 expression level relative to LPS alone,"[3]; 10 μM, dendritic cells",about 64%
same,CD86 (Mean fluorescence intensity; MFI),[3]; [14],304 MFI
same,CD86 (Mean fluorescence intensity; MFI),[3]; [10],"1,704 MFI"
same,TNFα,[4]; 10 μM,78.51 pg/mL
same,Percent survival (%),"[8]; 5 mg/kg i.v. 3 h-delayed treatment (3 h after 50 mg/kg LPS i.p.), 0 h",100%
same,Percent survival (%),"[8]; 5 mg/kg i.v. 3 h-delayed treatment, 50 mg/kg LPS, 20 h",100%
same,Percent survival (%),"[8]; 5 mg/kg i.v. 3 h-delayed treatment, 50 mg/kg LPS, 24 h",100%
same,Percent survival (%),"[8]; 5 mg/kg i.v. 3 h-delayed treatment, 50 mg/kg LPS, 28 h",83.3%
same,Percent survival (%),"[8]; 5 mg/kg i.v. 3 h-delayed treatment, 50 mg/kg LPS, 32 h",83.3%
same,Percent survival (%),"[8]; 5 mg/kg i.v. 3 h-delayed treatment, 50 mg/kg LPS, 36 h",83.3%
same,Percent survival (%),"[8]; 5 mg/kg i.v. 3 h-delayed treatment, 50 mg/kg LPS, 40 h",83.3%
same,Percent survival (%),"[8]; 5 mg/kg i.v. 3 h-delayed treatment, 50 mg/kg LPS, 44 h",66.7%
same,Percent survival (%),"[8]; 5 mg/kg i.v. 3 h-delayed treatment, 50 mg/kg LPS, 48 h",66.7%
same,Percent survival (%),"[8]; 5 mg/kg i.v. 3 h-delayed treatment, 50 mg/kg LPS, 52 h",66.7%
same,Percent survival (%),"[8]; 5 mg/kg i.v. 3 h-delayed treatment, 50 mg/kg LPS, 56 h",66.7%
same,Percent survival (%),"[8]; 5 mg/kg i.v. 3 h-delayed treatment, 50 mg/kg LPS, 60 h",66.7%
same,Percent survival (%),"[8]; 5 mg/kg i.v. co-treatment (immediately before 50 mg/kg LPS i.p.), 0 h",100%
same,Percent survival (%),"[8]; 5 mg/kg i.v. co-treatment, 50 mg/kg LPS, 20 h",100%
same,Percent survival (%),"[8]; 5 mg/kg i.v. co-treatment, 50 mg/kg LPS, 24 h",83.3%
same,Percent survival (%),"[8]; 5 mg/kg i.v. co-treatment, 50 mg/kg LPS, 28 h",83.3%
same,Percent survival (%),"[8]; 5 mg/kg i.v. co-treatment, 50 mg/kg LPS, 32 h",83.3%
same,Percent survival (%),"[8]; 5 mg/kg i.v. co-treatment, 50 mg/kg LPS, 36 h",66.7%
same,Percent survival (%),"[8]; 5 mg/kg i.v. co-treatment, 50 mg/kg LPS, 40 h",66.7%
same,Percent survival (%),"[8]; 5 mg/kg i.v. co-treatment, 50 mg/kg LPS, 44 h",66.7%
same,Percent survival (%),"[8]; 5 mg/kg i.v. co-treatment, 50 mg/kg LPS, 48 h",66.7%
same,Percent survival (%),"[8]; 5 mg/kg i.v. co-treatment, 50 mg/kg LPS, 52 h",66.7%
same,Percent survival (%),"[8]; 5 mg/kg i.v. co-treatment, 50 mg/kg LPS, 56 h",66.7%
same,Percent survival (%),"[8]; 5 mg/kg i.v. co-treatment, 50 mg/kg LPS, 60 h",66.7%
same,CD40 (Mean fluorescence intensity; MFI),[5]; [9],"1,998 MFI"
same,CD40 expression level relative to LPS alone,"[5]; 10 μM, dendritic cells",about 49%
same,CD40 (Mean fluorescence intensity; MFI),[5]; [14],253 MFI
same,CD40 (Mean fluorescence intensity; MFI),[5]; [10],982 MFI
